Assay results published in BigSolDB 2.1.

CCCCCCOC(=O)NC(=N)c1ccc(NCc2nc3cc(C(=O)N(CCC(=O)OCC)c4ccccn4)ccc3n2C)cc1.CS(=O)(=O)O
solubility (mole fraction)
Conditions | 287.37 K | 292.2 K | 297.95 K | 303.97 K | 308.88 K | 313.59 K | 318.4 K | 323.39 K
in DMAc | 0.0228 | 0.0241 | 0.0264 | 0.0285 | 0.0311 | 0.0338 | 0.0372 | 0.0403
in DMF | 0.0217 | 0.0229 | 0.0246 | 0.0269 | 0.0294 | 0.0318 | 0.035 | 0.0385
in ethanol | 0.00092 | 0.00116 | 0.00153 | 0.00208 | 0.00267 | 0.00343 | 0.00458 | 0.00626
in ethylene glycol | 0.00425 | 0.00524 | 0.00619 | 0.00786 | 0.00961 | 0.0112 | 0.0143 | 0.0179
in methanol | 0.0158 | 0.018 | 0.0224 | 0.0274 | 0.0333 | 0.0389 | 0.0471 | 0.055
